Read-outs that look alike come from different tables or passages of the source.
Key:
[1] = tested on: chimera Fuc-TC2: Fuc-TIII (1-160) plus Fuc-TVI (160-359); settings: acceptor 0.25-167 mM, 3 mM GDP-[14C]fucose (so in the source), pH 6.2, 37° C.
Procedure: (§1) Extracts for α(1,3)Fuc-T assays were prepared by harvesting COS-7 cells 72 hours after transfection, and solubilizing the cell pellets in 1% Triton X-100 (Kukowska-Latallo, J. F., et al (1990) Genes Devel., vol. 4, 1288-1303; Lowe, J. B., et al (1991) J. Biol. Chem., vol. 266, 17467-17477; Weston, B. W., et al (1992) J. Biol. Chem., vol. 267, 4152-4160; Weston, B. W., et al (1992) J. Biol. Chem. vol. 267, 24575-24584). Cell extract protein contents were determined with a micro BCA protein assay reagent (Pierce). Fucosyltransferase assays were performed in a final volume of 20 μl, and contained 25 mM sodium cacodylate (pH 6.2), 5 mM ATP, 10 mM L-fucose, 20 mM MnCl2 and 3 mM GDP-[^14 C]fucose. Cell extract protein concentration was varied to approximate linear reaction rate conditions (net [14C]-fucose incorporation rate of a less than twenty percent of total input GDP-[^14 C]fucose radioactivity). […] Reactions were incubated at 37° C. for one hour and were terminated by the addition of 20 μl ethanol, followed by dilution with […] water. The total radioactivity in each reaction was determined by subjecting an aliquot to scintillation counting. To assess the amount of radioactive fucose incorporated into product, an additional aliquot was applied to a Dowex 1×2-400 column in the formate form (Sasaki, K., et al (1994) J. Biol. Chem., vol. 269, 14730-14737; Natsuka, S., et al (1994) J. Biol. Chem., vol. 269, 16789-16794; Macher, B. A., et al (1991) Glycobiology, vol. 1, 577-584; Natsuka, S., and Lowe, J. B. (1994) Curr. Opin. Struct. Biol., vol. 4, 683-691). The flow through fraction plus an additional 2 ml of a water column "wash" was collected, pooled and subjected to scintillation counting. Control assays containing no added acceptor substrate were also completed in parallel.

[2] = tested on: chimera Fuc-TC19: Fuc-TIII (1-99) plus Fuc-TVI (99-159) plus Fuc-TIII (161-361); settings: acceptor 0.25-167 mM, 3 mM GDP-[14C]fucose (so in the source), pH 6.2, 37° C.
Procedure: as §1

[3] = tested on: chimera Fuc-TC4: Fuc-TVI (1-159) plus Fuc-TIII (161-361); settings: acceptor 0.25-167 mM, 3 mM GDP-[14C]fucose (so in the source), pH 6.2, 37° C.
Procedure: as §1

[4] = tested on: chimera Fuc-TC20: Fuc-TVI (1-98) plus Fuc-TIII (100-160) plus Fuc-TVI (160-359); settings: acceptor 0.25-167 mM, 3 mM GDP-[14C]fucose (so in the source), pH 6.2, 37° C.
Procedure: as §1

[5] = tested on: chimera Fuc-TC18: Fuc-TVI (1-85) plus Fuc-TIII (87-160) plus Fuc-TVI (160-359); settings: acceptor 0.25-167 mM, 3 mM GDP-[14C]fucose (so in the source), pH 6.2, 37° C.
Procedure: as §1

[6] = biological target: human Fuc-TVI (α(1,3)fucosyltransferase), wild type, SEQ ID NO:14 (Homo sapiens, UniProt P51993); settings: read-out: Apparent Km LNB-I; acceptor 0.25-167 mM, 3 mM GDP-[14C]fucose (so in the source), pH 6.2, 37° C.
Procedure: as §1

IgG-Sepharose [7] = assay: batch binding of conditioned medium to IgG-Sepharose, enzyme activity assayed
IgG-Sepharose [8] = assay: batch binding of conditioned medium to IgG-Sepharose, washed matrix assayed for enzyme activity

Compound: CC(=O)N[C@H]1C(O)O[C@H](CO)[C@@H](O)[C@@H]1O[C@@H]1O[C@H](CO)[C@H](O)[C@H](O)[C@H]1O (stereo partly shown) [LNB-I, lacto-N-biose I]
- Km ([1]; read-out: Apparent Km LNB-I): > 50 mM
- Km ([2]; read-out: Apparent Km LNB-I): > 50 mM
- Km ([3]; read-out: Apparent Km LNB-I): > 50 mM
- Km ([4]; read-out: Apparent Km LNB-I): > 50 mM
- Km ([5]; read-out: Apparent Km LNB-I): > 50 mM
- Km [6]: > 50 mM

Compound: CC(=O)N[C@H]1C(O)O[C@H](CO)[C@@H](O[C@@H]2O[C@H](CO)[C@H](O)[C@H](O)[C@H]2O)[C@@H]1O (stereo partly shown) [LacNAc, N-acetyllactosamine]
- Km ([1]; read-out: Apparent Km LacNAc): > 50 mM
- Km ([2]; read-out: Apparent Km LacNAc): 1.1 mM
- Km ([3]; read-out: Apparent Km LacNAc): 5.8 mM
- Km ([4]; read-out: Apparent Km LacNAc): > 50 mM
- Km ([5]; read-out: Apparent Km LacNAc): > 50 mM

Compound: protein A-Fuc-TIV fusion protein encoded by pPROTA-α(Fuc-TIV)c (from UniProt P02976) (enzyme)
- percent of released activity retained (IgG-Sepharose [7]): 100%

Compound: protein A-Fuc-TV fusion protein encoded by pPROTA-Fuc-TVc (from UniProt P02976) (enzyme)
- percent of released activity retained (IgG-Sepharose [7]): 100%

Compound: protein A-fucosyltransferase fusion protein encoded by pPROTA-α(1,3/1,4)FTc (from UniProt P02976) (enzyme)
- percent of released activity retained (IgG-Sepharose [7]): 100%
- percent of activity recovered from the matrix after exhaustive washing (IgG-Sepharose [8]): 24%

Compound: protein A-α(1,2)fucosyltransferase fusion protein encoded by pPROTA-α(1,2)FTc (from UniProt P02976) (enzyme)
- percent of released activity retained (IgG-Sepharose [7]): 100%

Source: patent publication US5770420A, “Methods and products for the synthesis of oligosaccharide structures on glycoproteins, glycolipids, or as free molecules, and for the isolation of cloned genetic sequences that determine these structures” (The Regents of the University of Michigan, priority 1995, dated 1998)
